In ChEMBL document CHEMBL1154923 (J Med Chem, 2010):

Molecular target: T1, Rhodopsin kinase GRK7 (Homo sapiens, UniProt Q8WTQ7)
T1 sequence (Q8WTQ7 whole entry): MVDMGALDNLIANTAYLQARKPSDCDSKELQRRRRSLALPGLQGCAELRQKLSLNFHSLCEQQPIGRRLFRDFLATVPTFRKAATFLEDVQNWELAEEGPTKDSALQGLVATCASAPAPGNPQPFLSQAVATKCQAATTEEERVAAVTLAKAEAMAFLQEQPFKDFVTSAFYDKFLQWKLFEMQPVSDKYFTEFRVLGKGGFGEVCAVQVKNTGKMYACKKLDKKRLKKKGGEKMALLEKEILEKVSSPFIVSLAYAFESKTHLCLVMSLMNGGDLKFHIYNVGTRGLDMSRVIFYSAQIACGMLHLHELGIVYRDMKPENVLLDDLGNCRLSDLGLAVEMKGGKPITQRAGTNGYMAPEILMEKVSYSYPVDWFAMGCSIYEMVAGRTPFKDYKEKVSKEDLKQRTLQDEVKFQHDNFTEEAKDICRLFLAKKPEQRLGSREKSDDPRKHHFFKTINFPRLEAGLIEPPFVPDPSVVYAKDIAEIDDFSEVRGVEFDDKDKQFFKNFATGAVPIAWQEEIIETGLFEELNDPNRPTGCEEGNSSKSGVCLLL
Experiment: Inhibition of GRK7-mediated bovine tubulin phosphorylation by scintillation counting

O=C(N[C@@H]1CNCCC[C@H]1OC(=O)c1cc(O)c(C(=O)c2c(O)cccc2C(=O)O)c(O)c1)c1ccc(O)cc1 [BALANOL]
IC50: 180 nM
